Reference: patent US20210403874A1, “Method for Producing Stem/Precursor Cells, By Using Low Molecular Weight Compound, From Cells Derived From Endodermal Tissue or Organ” (Evia Life Sciences Inc., priority 2018, published 2021)

Test system: pancreatic progenitor cells
Experiment: Induction of differentiation from pancreatic progenitor cells into insulin-producing cells (floating culture)
Assay type: cell-based
Conditions: floating culture 7 days in the presence of YAC together with ALK5 inhibitor II, versus YAC; FIG. 6
Description: Total RNA was isolated from the pancreatic exocrine cells and PSC cells using miRNeasy Mini Kit (QIAGEN). Reverse transcription reaction was carried out using High-Capacity cDNA Reverse Transcription Kit (Life Technologies) following the manufacturer's guideline. The resulting cDNA was used as a template to perform PCR with Platinum SYBR Green qPCR SuperMix UDG (Invitrogen). The expression level of the target gene was normalized with β-actin as the endogenous control.
The cells were fixed with 4% paraformaldehyde for 15 minutes. The resultant was incubated with a blocking solution (Blocking One) (Nacalai Tesque, Kyoto) at 4° C. for 30 minutes, and then the cells were incubated with primary antibody at room temperature for an hour or at 4° C. overnight. Then, Alexa Fluor 488- or Alexa Fluor 594-labeled secondary antibody (Life Technologies) was used to detect the primary antibody. The nuclei were co-stained with Hoechst 33342 (Dojindo).
The cells were suspended in 5% FBS-containing SHM+YAC (cell density: 1×10^4 to 1×10^6 cells/cm') and cultured on an ultra-low adsorption culture dish for 7 days. The medium was exchanged on the fourth day.

Cc1cccc(-c2[nH]ncc2-c2ccc3ncccc3n2)n1 [ALK5 inhibitor II]
mRNA expression of Insulin and GLUT2: further improvements
